What all share (type): cell-based
In test [1] the test system is Aspergillus terreus AT49. The experiment in a line: MIC, YAG medium. Conditions: 24 h at 35° C, MIC banded into grades; for MIC: Aspergillus terreus, read-out: MIC grade, A. terreus 49. In short, it runs like this: (§1)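 MICs (mg/L) derive from the lowest compound concentration suppressing spore outgrowth by >70% against a drug-free well, by OD 485 nm. Conditions: YAG medium, 1−2×10^4 cfu/mL, 24 h, 35° C, two-fold dilutions from 50 mg/L.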

Test [2] has as its system Aspergillus fumigatus AF293. Briefly: MIC, YAG medium. The following applies: 24 h at 35° C, MIC banded into grades; for MIC: Aspergillus fumigatus, read-out: MIC grade, A. fumigatus. An outline of the steps: as §1
In test [3] the test system is Aspergillus niger. Briefly: MIC, YAG medium. The following applies: 24 h at 35° C, MIC banded into grades; for MIC: Aspergillus niger, read-out: MIC grade, A. niger. An outline of the steps: as §1
Test [4] relates to Aspergillus terreus AT4. Briefly: MIC, YAG medium. Conditions: 24 h at 35° C, MIC banded into grades; for MIC: Aspergillus terreus, read-out: MIC grade, A. terreus. An outline of the steps:
as §1

Test [5] relates to Aspergillus flavus. Briefly: MIC, YAG medium. The following applies: 24 h at 35° C, MIC banded into grades; for MIC: Aspergillus flavus, 24 h, read-out: MIC grade, A. flavus. In short, it runs like this:
as §1

Test [6] relates to Aspergillus fumigatus AF210. The experiment in a line: MIC, YAG medium. The following applies: 24 h at 35° C, MIC banded into grades; for MIC: Aspergillus fumigatus, read-out: MIC grade, A. fumigatus 210. An outline of the steps:
as §1

The test system of test [7] is Aspergillus terreus AT49. The experiment in a line: MIC, RPMI medium. The following applies: for MIC: Aspergillus terreus, AT49, MIC banded into grades, read-out: MIC grade, A. terreus 49; for MIC grade, A. terreus 49: MIC banded into grades. An outline of the steps: (§2)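 Fungi are tested in RPMI buffered with 0.135 M MOPS (pH 7.0) plus 2% glucose, inoculum 1−2×10^4 cfu/mL, against doubling compound dilutions spanning 50-0.05 mg/L. After 24-48 h at 35° C, the MIC is the lowest concentration suppressing growth by >80% against drug-free control.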

Test [8] relates to Aspergillus fumigatus AF293. The experiment in a line: MIC, RPMI medium. Conditions: for MIC: Aspergillus fumigatus, AF293, MIC banded into grades, read-out: MIC grade, A. fumigatus; for MIC grade, A. fumigatus: MIC banded into grades. In short, it runs like this: as §2
In test [9] the test system is Aspergillus niger. The experiment in a line: MIC, RPMI medium. Conditions: MIC banded into grades; for MIC: Aspergillus niger, read-out: MIC grade, A. niger. In short, it runs like this:
as §2

Test [10] concerns Aspergillus terreus AT4. Briefly: MIC, RPMI medium. Conditions: for MIC: Aspergillus terreus, AT4, MIC banded into grades, read-out: MIC grade, A. terreus; for MIC grade, A. terreus: MIC banded into grades. An outline of the steps:
as §2

Test [11] concerns Aspergillus flavus. The experiment in a line: MIC, RPMI medium. The following applies: MIC banded into grades; for MIC: Aspergillus flavus, read-out: MIC grade, A. flavus. In short, it runs like this:
as §2

Test [12] relates to Aspergillus fumigatus AF210. The experiment in a line: MIC, RPMI medium. The following applies: for MIC: Aspergillus fumigatus, AF210, MIC banded into grades, read-out: MIC grade, A. fumigatus 210; for MIC grade, A. fumigatus 210: MIC banded into grades. In short, it runs like this: as §2

Molecules are shown by their SMILES. Converted amounts (≈) assume the structure as drawn.

As usually defined, the MIC is the least concentration at which growth counts as inhibited. On to `CSCn1c(C)cc(-c2ccccc2)c1C(=O)C(=O)Nc1ccc(N2CCN(c3cc(C)cc(C)n3)CC2)cc1` [Example 137, N-{4-[4-(4,6-Dimethyl-pyridin-2-yl)-piperazin-1-yl]-phenyl}-2-(5-methyl-1-methylsulfanylmethyl-3-phenyl-1H-pyrrol-2-yl)-2-oxo-acetamide], for which the minimum inhibitory concentration (MIC) (in the test with Aspergillus terreus AT49 [1]; in test [2]; with Aspergillus niger [3]; in the test on Aspergillus terreus AT4 [4]; in the test on Aspergillus flavus [5]; in test [6]) was less than 1 µg/mL each time. The minimal inhibitory concentration (MIC) in the test on Aspergillus terreus AT49 [7] was 1 to 10 µg/mL (≈ 1.81 to 18.1 µM); in [8], less than 1 µg/mL; in the test on Aspergillus niger [9] it was 1 to 10 µg/mL (≈ 1.81 to 18.1 µM); in the test with Aspergillus terreus AT4 [10] it was 1 to 10 µg/mL (≈ 1.81 to 18.1 µM); in the test on Aspergillus flavus [11], 1 to 10 µg/mL (≈ 1.81 to 18.1 µM); in test [12], 1 to 10 µg/mL (≈ 1.81 to 18.1 µM).

For `Cc1cc(-c2ccccc2)c(C(=O)C(=O)Nc2ccc(-c3ncco3)cc2)n1C` [Example 147, 2-(1,5-Dimethyl-3-phenyl-1H-pyrrol-2-yl)-N-(4-oxazol-2-yl-phenyl)-2-oxo-acetamide], the minimum inhibitory concentration (MIC) (in the test with Aspergillus terreus AT49 [1]; in test [2]; in the test on Aspergillus niger [3]; in the test on Aspergillus terreus AT4 [4]; in the test with Aspergillus flavus [5]; in test [6]) was less than 1 µg/mL throughout. The minimal inhibitory concentration (MIC) (in the test with Aspergillus terreus AT49 [7]; in test [8]; with Aspergillus niger [9]; in the test with Aspergillus terreus AT4 [10]; in the test with Aspergillus flavus [11]; in [12]) was less than 1 µg/mL throughout.

For `CCCCOCn1c(C)cc(-c2ccccc2)c1C(=O)C(=O)Nc1ccc(N2CCN(c3cc(C)cc(C)n3)CC2)cc1` [Example 135, 2-(1-Butoxymethyl-5-methyl-3-phenyl-1H-pyrrol-2-yl)-N-{4-[4-(4,6-dimethyl-pyridin-2-yl)-piperazin-1-yl]-phenyl}-2-oxo-acetamide], the minimum inhibitory concentration (MIC) in the test on Aspergillus terreus AT49 [1] is more than 10 µg/mL; in test [2], less than 1 µg/mL; in the test on Aspergillus niger [3], 1 to 10 µg/mL (≈ 1.72 to 17.2 µM); in the test on Aspergillus terreus AT4 [4], 1 to 10 µg/mL (≈ 1.72 to 17.2 µM); in the test on Aspergillus flavus [5] it was more than 10 µg/mL; in test [6], 1 to 10 µg/mL (≈ 1.72 to 17.2 µM). The MIC (with Aspergillus terreus AT49 [7]; in test [8]; with Aspergillus niger [9]; in the test with Aspergillus terreus AT4 [10]; with Aspergillus flavus [11]; in test [12]) was more than 10 µg/mL throughout.

For `COCCCCn1c(C)cc(-c2ccccc2)c1C(=O)C(=O)Nc1ccc(N2CCN(c3cc(C)cc(C)n3)CC2)cc1` [Example 142, N-{4-[4-(4,6-Dimethyl-pyridin-2-yl)-piperazin-1-yl]-phenyl}-2-[1-(4-methoxy-butyl)-5-methy-3-phenyl-1H-pyrrol-2-yl]-2-oxo-acetamide], the “MIC grade, A. terreus 49” value with Aspergillus terreus AT49 [1] and with Aspergillus terreus AT49 [7] was 3 (A grade of 3 represents an MIC of less than 1 mg/L) each time. In addition, the “MIC grade, A. fumigatus” value in test [2] and in test [8] was 3 (A grade of 3 represents an MIC of less than 1 mg/L) throughout. For the same compound, the “MIC grade, A. niger” value against Aspergillus niger [3] and with Aspergillus niger [9] was 3 (A grade of 3 represents an MIC of less than 1 mg/L) in each case. Further, the “MIC grade, A. terreus” value in the test on Aspergillus terreus AT4 [4] and in the test on Aspergillus terreus AT4 [10] was 3 (A grade of 3 represents an MIC of less than 1 mg/L) each time. The “MIC grade, A. flavus” value with Aspergillus flavus [5] and against Aspergillus flavus [11] was 3 (A grade of 3 represents an MIC of less than 1 mg/L) each time. For the same compound, the “MIC grade, A. fumigatus 210” value in [6] and in test [12] was 3 (A grade of 3 represents an MIC of less than 1 mg/L) in each case.

On to `Cc1cc(-c2ccccc2)c(C(=O)C(=O)Nc2ccc(N3CCN(C(=O)C(C)C)CC3)cc2)n1C` [Example 145, 2-(1,5-Dimethyl-3-phenyl-1H-pyrrol-2-yl)-N-[4-(4-isobutyryl-piperazin-1-yl)-phenyl]-2-oxo-acetamide], for which the minimal inhibitory concentration (MIC) (with Aspergillus terreus AT49 [1]; in test [2]; in the test on Aspergillus niger [3]; in the test on Aspergillus terreus AT4 [4]; in the test with Aspergillus flavus [5]; in [6]) was less than 1 µg/mL each time. For the same compound, the minimal inhibitory concentration (MIC) in the test on Aspergillus terreus AT49 [7] was less than 1 µg/mL; in test [8], less than 1 µg/mL; with Aspergillus niger [9], 1 to 10 µg/mL (≈ 2.12 to 21.2 µM); in the test with Aspergillus terreus AT4 [10] it was less than 1 µg/mL; with Aspergillus flavus [11], less than 1 µg/mL; in test [12], less than 1 µg/mL.

Consider `COCCn1c(C)cc(-c2ccccc2)c1C(=O)C(=O)Nc1ccc(N2CCCCC2)c(F)c1` [Example 119, N-(3-Fluoro-4-piperdin-1-yl-phenyl)-2-[1-(2-methoxy-ethyl)-5-methyl-3-phenyl-1H-pyrrol-2-yl]-2-oxo-acetamide], for which the “MIC grade, A. terreus 49” value in the test on Aspergillus terreus AT49 [1] is 3 (A grade of 3 represents an MIC of less than 1 mg/L); against Aspergillus terreus AT49 [7], 2 (A grade of 2 represents an MIC of from 1 to 10 mg/L). Further, the “MIC grade, A. fumigatus” value in test [2] and in test [8] was 3 (A grade of 3 represents an MIC of less than 1 mg/L) in each case. Moreover, the “MIC grade, A. niger” value against Aspergillus niger [3] and in the test on Aspergillus niger [9] was 3 (A grade of 3 represents an MIC of less than 1 mg/L) throughout. Moreover, the “MIC grade, A. terreus” value with Aspergillus terreus AT4 [4] and with Aspergillus terreus AT4 [10] was 3 (A grade of 3 represents an MIC of less than 1 mg/L) each time. The “MIC grade, A. flavus” value with Aspergillus flavus [5] and against Aspergillus flavus [11] was 2 (A grade of 2 represents an MIC of from 1 to 10 mg/L) each time. Besides, the “MIC grade, A. fumigatus 210” value in [6] and in [12] was 3 (A grade of 3 represents an MIC of less than 1 mg/L) each time.

With `CCn1ccc2c(F)c(NC(=O)C(=O)c3c(-c4ccccc4)cc(C)n3C)ccc21` [Example 128, 2-(1,5-Dimethyl-3-phenyl-1H-pyrrol-2-yl)-N-(1-ethyl-4-fluoro-1H-indol-5-yl)-2-oxo-acetamide], the minimal inhibitory concentration (MIC) (in the test with Aspergillus terreus AT49 [1]; in test [2]; in the test with Aspergillus niger [3]; in the test on Aspergillus terreus AT4 [4]; in the test on Aspergillus flavus [5]; in test [6]) was less than 1 µg/mL throughout. Moreover, the MIC (in the test with Aspergillus terreus AT49 [7]; in [8]; in the test on Aspergillus niger [9]; in the test on Aspergillus terreus AT4 [10]; in the test with Aspergillus flavus [11]; in [12]) was less than 1 µg/mL in each case.

Consider `COCCn1c(C)cc(-c2ccccc2)c1C(=O)C(=O)Nc1ccc(N2CCN(c3ccccn3)CC2)cc1F` [Example 96, N-[2-Fluoro-4-(4-pyridin-2-yl-piperazin-1-yl)-phenyl]-2-[1-(2-methoxy-ethyl)-5-methyl-3-phenyl-1H-pyrrol-2-yl]-2-oxo-acetamide], for which the MIC (in the test with Aspergillus terreus AT49 [1]; in test [2]; in the test on Aspergillus niger [3]; in the test on Aspergillus terreus AT4 [4]; with Aspergillus flavus [5]; in [6]) was less than 1 µg/mL in each case. For the same compound, the minimal inhibitory concentration (MIC) in the test on Aspergillus terreus AT49 [7] was 1 to 10 µg/mL (≈ 1.85 to 18.5 µM); in test [8], less than 1 µg/mL; with Aspergillus niger [9], less than 1 µg/mL; in the test with Aspergillus terreus AT4 [10], less than 1 µg/mL; in the test on Aspergillus flavus [11] it was 1 to 10 µg/mL (≈ 1.85 to 18.5 µM); in [12] it was less than 1 µg/mL.

For the compound `COCCn1ccc(C(C)C)c1C(=O)C(=O)Nc1ccc(N2CCN(c3cc(C)cc(C)n3)CC2)cc1` [Example 83, N-{4-[4-(4,6-Dimethyl-pyridin-2-yl)-piperazin-1-yl]-phenyl}-2-[3-isopropyl-1-(2-methoxy-ethyl)-1H-pyrrol-2-yl]-2-oxo-acetamide], the minimum inhibitory concentration (MIC) is 1 to 10 µg/mL (≈ 1.99 to 19.9 µM) with Aspergillus terreus AT49 [1]; 1 to 10 µg/mL (≈ 1.99 to 19.9 µM) in test [2]; more than 10 µg/mL in the test on Aspergillus niger [3]; 1 to 10 µg/mL (≈ 1.99 to 19.9 µM) in the test on Aspergillus terreus AT4 [4]; more than 10 µg/mL with Aspergillus flavus [5]; 1 to 10 µg/mL (≈ 1.99 to 19.9 µM) in test [6]. Moreover, the MIC (in the test with Aspergillus terreus AT49 [7]; in [8]; in the test on Aspergillus niger [9]; in the test on Aspergillus terreus AT4 [10]; with Aspergillus flavus [11]; in [12]) was more than 10 µg/mL in each case.
